No end group written: not given here. *: point of attachment. αGalNAc = CC(=O)N[C@@H]1[C@@H](O)[C@@H](O)[C@@H](CO)O[C@@H]1*
Legend:
[1] = system: E. coli SQ171 A752G; experiment: Antibiotic susceptibility (growth) assay, E. coli SQ171 A752G; assay type: cell-based, Escherichia coli; conditions: relative to no compound, mean of 3 replicas
Source text: (§1) In addition, we also used a strain with a U2609C–A752G double mutation, which would be predicted to restore Watson–Crick base pairing, and with three hydrogen bonds could possibly make breaking the base pair harder than with the canonical two hydrogen bonds for the A–U base pair. As a control, we also tested Dro that lacks the α-D-GalNAc modification, which we predict (assuming that Dro binds analogously to Dro1) should not interact with U2609 and, therefore, not be influenced by the conformation of the U2609–A752 base pair.
(§2) Strains E. coli Keio wild-type and E. coli Keio ΔsbmA used from the Keio knockout collection (Horizon, https://horizondiscovery.com). Wild-type E. coli SQ110 (ΔrrnGADBHC(ptRNA67))[47] and SQ171 (ΔrrnGADEHBC(pKK3535, ptRNA67))[47] strains and related mutants E. coli SQ110 A2059G and E. coli SQ171 A2503G were obtained from the previous Api137 study. E. coli strains SQ171 bearing A752G, U2609C and A752G:U2609C mutations[43] and E. coli SQ171 U2609G[48] were generated previously.
(§3) The susceptibility of E. coli strains to compounds was evaluated by monitoring the bacterial growth in presence of increasing concentrations of the compound of interest. In brief, bacteria were inoculated in a total volume of 100 μl of medium contained in a well of a 96-well microplate (round bottom, with cap, sterile; Sarstedt). The medium used was either LB, as rich medium, or ATCC medium (778 Davis and Mingioli glucose minimal medium), as minimal medium. Before inoculation, bacteria were grown up to exponential phase and then inoculated into the culture mix, containing selective antibiotic if necessary, with an initial optical density at 600 nm (OD600) of 0.05. Values measured from wells containing just the medium were used as a blank. The growth in each well was monitored by measuring the OD600 every 10 minutes for a total of 20 hours at 37 °C with shaking using a plate reader (Tecan Infinite 200 PRO). The inhibition resulting from a compound’s concentration was evaluated by normalizing the OD600 at t = 12 hours (corresponding to the end of the log phase) from the treated culture to the untreated one. For each compound, the concentrations tested were 5 μM, 10 μM and 30 μM. Each single titration assay was done in triplicate with individually prepared culture mixes. For each concentration, the standard deviation was calculated, taking into account each single replica and its specific technical error from the plate reader.

[2] = system: E. coli SQ171 A752G/U2609C; experiment: Antibiotic susceptibility (growth) assay, E. coli SQ171 A752G/U2609C; assay type: cell-based, Escherichia coli; conditions: for OD600 at t = 12 h, Normalized, Average: relative to no compound, mean of 3 replicas
Source text: as §1, §2, §3

[3] = system: E. coli SQ171 wt; experiment: Antibiotic susceptibility (growth) assay, E. coli SQ171 wt; assay type: cell-based, Escherichia coli; conditions: relative to no compound, mean of 3 replicas
Source text: as §2, §3

[4] = system: E. coli SQ171 U2609G; experiment: Antibiotic susceptibility (growth) assay, E. coli SQ171 U2609G; assay type: cell-based, Escherichia coli; conditions: relative to no compound, mean of 3 replicas
Source text: as §1, §2, §3

[5] = system: E. coli SQ171 U2609C; experiment: Antibiotic susceptibility (growth) assay, E. coli SQ171 U2609C; assay type: cell-based, Escherichia coli; conditions: relative to no compound, mean of 3 replicas
Source text: as §1, §2, §3

[6] = system: E. coli Keio ∆sbmA (BW25113 ΔsbmA); experiment: Antibiotic susceptibility (growth) assay, E. coli Keio ΔsbmA; assay type: cell-based, Escherichia coli; conditions: 30 μM peptide, average of three biological replicates
Source text: (§4) Many PrAMPs use the SbmA transporter to pass through the E. coli inner membrane[4],[10],[31]; however, whether drosocin also uses SbmA remains, to our knowledge, unknown. To address this, we monitored the effect of the presence of diverse drosocin peptides (Fig. 1a,b and Supplementary Fig. 1a) on the growth of the wild-type E. coli strain BW25113 containing SbmA or lacking SbmA (ΔsbmA) (Fig. 1c,d). We compared unmodified drosocin (Dro) with various modified forms (Fig. 1a,b). The modified forms included the naturally occurring Dro1 and Dro2 that carry either a monosaccharide (α-D-GalNAc) or disaccharide (β-D-Gal(1→3)-α-D-GalNAc) attached to Thr11, respectively (Fig. 1b). In addition, we examined the previously reported[23],[24] drosocin derivatives bearing β-D-Maltosyl (Dro3), α-D-GlcNAc (Dro4), β-D-Gal (Dro5), β-D-Glc (Dro6), β-D-Lactosyl (Dro7) and β-D-Cellobiosyl (Dro8) modifications on Thr11 (Fig. 1a,b and Supplementary Fig. 1a). Finally, we also included in our analysis the synthetic unmodified drosocin derivative with proline substitutions at positions 7, 11 and 12 (Dro-3P) (Fig. 1a), which was previously reported to have similar antimicrobial activity to the monosaccharide form of drosocin[25]. Growth was monitored in both rich (LB) and minimal medium in the presence of 30 μM of each peptide and normalized with the growth in the absence of the compounds (Methods). […] We also observed no inhibition for Dro2 nor for any of the β-linked disaccharides (Dro3, Dro6 or Dro7). […] By contrast, all drosocin peptides inhibited growth of the E. coli BW25113 strain in minimal medium, albeit to different extents (Fig. 1d).
as §2, §3

[7] = system: in vitro translation, E. coli PURExpress system, firefly luciferase (Fluc) mRNA; experiment: In vitro translation assay with Fluc reporter; assay type: biochemical, Escherichia coli; conditions: Fluc mRNA, luminescence; for maximum inhibition of in vitro translation: at the highest concentration tested of 150 μM
Experimental: To investigate this, we compared the effect of increasing concentrations (0–150 μM) of modified Dro1 and Dro2 with unmodified Dro, Dro-3P and Api137 using a cell-free in vitro translation system and firefly luciferase (Fluc) mRNA as a template (Fig. 1e), as we have used previously for assessing the activity of other PrAMPs[4],[6],[8],[9],[32],[33].
The in vitro translation assay was carried out as described previously[4],[8] using the E. coli PURExpress system (New England Biolabs (NEB), E6800S). Then, 1 µl of antibiotic solution was added to 5 µl of PURExpress reaction mix. Each reaction contained 10 ng μl^−1 of mRNA encoding the Fluc, which was in vitro transcribed from a pIVEX-2.3MCS vector containing the Fluc gene using T7 polymerase (Thermo Fisher Scientific). The reaction mix was incubated for 30 minutes at 32 °C while shaking (600 r.p.m.). Reactions were stopped with 5 µl of kanamycin (50 mg ml^−1) and transferred into a 96-well microplate (Greiner Lumitrac, non-binding, white, chimney). Next, 40 µl of luciferase assay substrate solution (Promega, E1501) was added, and luminescence was measured using a plate reader (Tecan Infinite 200 PRO). Nuclease-free water was added instead of antibiotic as control. Absolute luminescence values were normalized using reactions without antibiotic. All assays were done as triplicates with individually prepared reaction mix.

[8] = system: E. coli Keio wt (BW25113); experiment: Antibiotic susceptibility (growth) assay, E. coli Keio wild-type; assay type: cell-based, Escherichia coli; conditions: 30 μM peptide; for Average of normalized growth: average of three biological replicates; for growth inhibition in rich medium: rich (LB) medium
Source text: as §4, §2, §3

Substance	OD600 at t = 12 h, Normalized, Average ([1]; 5 μM)	OD600 at t = 12 h, Normalized, Average ([1]; 30 μM)	OD600 at t = 12 h, Normalized, Average ([2]; 5 μM)	OD600 at t = 12 h, Normalized, Average ([2]; 30 μM)	tolerance of double mutant relative to the wild-type strain ([2]; U2609C–A752G double mutation vs wild-type SQ171, 30 μM)	OD600 at t = 12 h, Normalized, Average ([3]; 5 μM)	OD600 at t = 12 h, Normalized, Average ([3]; 30 μM)	OD600 at t = 12 h, Normalized, Average ([4]; 5 μM)	OD600 at t = 12 h, Normalized, Average ([4]; 30 μM)	OD600 at t = 12 h, Normalized, Average ([5]; 5 μM)	OD600 at t = 12 h, Normalized, Average ([5]; 30 μM)	Average of normalized growth ([6]; LB rich medium)	Average of normalized growth ([6]; Minimal medium)	IC50 ([7]; 0–150 μM peptide, 30 minutes at 32 °C, triplicate, read-out: half maximal inhibitory concentration (IC50), in vitro translation)	maximum inhibition of in vitro translation [7]	Average of normalized growth ([8]; LB rich medium)	Average of normalized growth ([8]; Minimal medium)	growth inhibition in minimal medium [8]	growth inhibition in rich medium [8]
Dro1: naturally occurring drosocin carrying monosaccharide α-D-GalNAc attached to Thr11 (GKPRPYSPRPT(αGalNAc)SHPRPIRV; UniProt P36193 22-40, looked up)	70%	7%	70%	25%	2.5 fold	93%	11%	50%	8%	40%	5%	99%	106%	78 ± 13 µM	60%	38%	6%	highest inhibition	growth inhibition
Dro: unmodified drosocin, 19 amino acid proline-rich antimicrobial peptide lacking O-glycosylation (GKPRPYSPRPTSHPRPIRV; Drosocin; UniProt P36193 22-40, looked up)	84%	59%	85%	72%	–	86%	72%	87%	59%	92%	71%	102%	102%	–	20%	98%	87%	lowest	inactive
